Structures can show the parent of a compound that is named as a salt.
Legend:
[1] = Transport through pig mucosa (Franz diffusion cells); type: in vitro ADME, porcine
Description: In this example, bilaminate mucoadhesive discs, containing as an active substance benzocaine or Dyclonine HCl, were affixed to porcine buccal mucosa and mounted on Franz diffusion cells as described in Example XIII. Avenge amounts of active substance was measured using HPLC, and percents were expressed as a percent of the total initially in the disc.
Particularly, the donor side of the cell was filled with pH 6 buffer and the receiver side was filled with phosphate buffered saline ("PBS"). Samples were taken from the receiver side every thirty minutes for three hours, and the samples were analyzed by HPLC. The average amount and the average percent of active substance appearing in the receiver side after three hours are shown in Table IV.

[2] = Transport through human stratum corneum (Franz diffusion cells); type: in vitro ADME
Description: In this example, bilaminate mucoadhesive discs, containing as an active substance benzocaine or Dyclonine HCl, were affixed to human stratum corneum and mounted on Franz diffusion cells. The donor side of the cell was filled with pH 6 buffer and the receiver side was filled with PBS. Samples were taken from the receiver side and analyzed using HPLC, and the average amount and percentage of active substance appearing in the receiver cell were determined.

[3] = Release of benzocaine into distilled water: effect of polymer molecular weight; type: physicochemical; conditions: HPC 80 k vs. 300 k in active-containing layer, FIG. 11
Description: In this Example, bilaminate mucoadhesive discs containing benzocaine were constructed generally as described in Example IX, substituting benzocaine for Dyclonine. Discs were made using HPC both at the same molecular weight as described in Example 2 (80 k), and at a higher molecular weight (300 k), and the release into distilled water was tested as described in Example X. The results are shown in FIG. 11.

Row | Average % Transported ([1]; 15% in bilaminate disc, % of drug initially in device, three hours, donor pH 6 buffer, receiver PBS) [%] | Average Amount Delivered ([1]; pH 6) [μg/cm^2] | Average % Transported ([2]; 15% in bilaminate disc, donor pH 6 buffer, receiver PBS) [%] | Average Amount Delivered ([2]; pH 6) [μg/cm^2] | Average % Transported ([1]; pH 6) [%] | Average % Transported ([2]; pH 6) [%] | Structure (SMILES) | release rate of benzocaine vs. molecular weight of HPC [3]
1 | 3.29 | 284.63 | 2.42 | 255.56 |  |  | CCOC(=O)c1ccc(N)cc1 [Benzocaine, benzocaine] | decrease in release rate of benzocaine with increasing molecular weight of HPC
2 |  | 282.77 |  | 14.60 | 3.94 | 0.18 | CCCCOc1ccc(C(=O)CCN2CCCCC2)cc1 [Dyclonine HCl] | 

Source: US5700478A, “Water-soluble pressure-sensitive mucoadhesive and devices provided therewith for emplacement in a mucosa-lined body cavity” (Cygnus, Inc., priority 1995, dated 1997)
